Assay results: ChEMBL document CHEMBL4811304, “Design, synthesis and biological evaluation of dual mTOR/HDAC6 inhibitors in MDA-MB-231 cells” (Bioorg Med Chem Lett, 2021)

Target: T1, Serine/threonine-protein kinase mTOR (Homo sapiens, UniProt P42345)
Assay: Inhibition of mTOR (unknown origin)

IC50 | SMILES
3.8 nM | CCNC(=O)Nc1ccc(-c2nc3c(c(N4CCOC[C@@H]4C)n2)CCN(C2COC2)C3)cc1 [RG-7603]

Target: T2, Protein deacetylase HDAC6 (Homo sapiens, UniProt Q9UBN7)
T2 sequence (Q9UBN7 whole entry): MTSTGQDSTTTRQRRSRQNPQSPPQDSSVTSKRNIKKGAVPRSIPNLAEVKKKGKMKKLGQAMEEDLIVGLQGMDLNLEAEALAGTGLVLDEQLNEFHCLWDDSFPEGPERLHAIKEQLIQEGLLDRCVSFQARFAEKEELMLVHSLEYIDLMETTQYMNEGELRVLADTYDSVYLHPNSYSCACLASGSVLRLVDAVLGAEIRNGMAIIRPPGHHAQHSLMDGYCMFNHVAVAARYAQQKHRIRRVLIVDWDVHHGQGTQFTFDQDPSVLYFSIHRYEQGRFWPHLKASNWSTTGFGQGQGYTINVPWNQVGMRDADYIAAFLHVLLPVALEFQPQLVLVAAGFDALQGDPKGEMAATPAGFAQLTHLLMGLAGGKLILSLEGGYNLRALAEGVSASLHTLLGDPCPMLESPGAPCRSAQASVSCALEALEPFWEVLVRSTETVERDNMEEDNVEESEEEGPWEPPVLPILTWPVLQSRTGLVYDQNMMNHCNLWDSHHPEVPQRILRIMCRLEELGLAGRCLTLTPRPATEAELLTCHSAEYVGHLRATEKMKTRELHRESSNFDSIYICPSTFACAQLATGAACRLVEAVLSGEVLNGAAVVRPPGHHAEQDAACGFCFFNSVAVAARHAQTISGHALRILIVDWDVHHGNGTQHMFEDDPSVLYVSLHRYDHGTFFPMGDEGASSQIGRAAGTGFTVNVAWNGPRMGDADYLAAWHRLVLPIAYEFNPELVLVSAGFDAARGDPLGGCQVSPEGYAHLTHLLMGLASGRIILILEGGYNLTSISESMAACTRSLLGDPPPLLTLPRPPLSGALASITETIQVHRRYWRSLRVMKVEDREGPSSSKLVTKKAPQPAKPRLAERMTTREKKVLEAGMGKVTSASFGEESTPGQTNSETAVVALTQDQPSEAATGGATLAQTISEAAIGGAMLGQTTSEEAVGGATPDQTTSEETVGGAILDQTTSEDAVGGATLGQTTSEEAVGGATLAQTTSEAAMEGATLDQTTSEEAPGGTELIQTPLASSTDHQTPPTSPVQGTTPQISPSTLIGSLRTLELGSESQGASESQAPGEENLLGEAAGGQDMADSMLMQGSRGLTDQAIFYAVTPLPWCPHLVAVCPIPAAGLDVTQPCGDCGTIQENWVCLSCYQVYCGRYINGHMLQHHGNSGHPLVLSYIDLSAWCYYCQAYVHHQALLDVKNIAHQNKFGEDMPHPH
Assay: Inhibition of HDAC6 (unknown origin)

IC50 | SMILES
2 nM | Cn1c(=O)n(-c2ccc(C(C)(C)C#N)cc2)c2c3cc(-c4cnc5ccccc5c4)ccc3ncc21 [DACTOLISIB]

Target: T1, Serine/threonine-protein kinase mTOR
Assay: Inhibition of mTOR (unknown origin) at 0.5 uM relative to control

inhibition | SMILES
18.3% | O=C(NO)c1ccc(-c2nc(N3CCCC3)c3ccc(Cl)cc3n2)cc1
10.6% | COc1cc(OC)c2c(N3CCC(F)(F)CC3)nc(-c3ccc(C(=O)NO)cc3)nc2c1
60.1% | O=C(NO)c1ccc(-c2nc(N3CCOCC3)c3ccccc3n2)cc1
14.9% | O=C(NO)c1ccc(-c2nc(N3CCCCC3)c3ccc(Cl)cc3n2)cc1
95.4% | Cn1c(=O)n(-c2ccc(C(C)(C)C#N)cc2)c2c3cc(-c4cnc5ccccc5c4)ccc3ncc21 [DACTOLISIB]
23.6% | O=C(NO)c1ccc(-c2nc(N3CCCCC3)c3ccccc3n2)cc1
76.8% | CN1CCN(c2nc(-c3ccc(C(=O)NO)cc3)nc3ccccc23)CC1
39.7% | O=C(NO)c1ccc(-c2nc(N3CCS(=O)(=O)CC3)c3ccc(Cl)cc3n2)cc1
11.5% | COc1cc(OC)c2c(N3CCCCC3)nc(-c3ccc(C(=O)NO)cc3)nc2c1
44.9% | O=C(NO)c1ccc(-c2nc(N3CCSCC3)c3ccc(Cl)cc3n2)cc1
75.5% | O=C(NO)c1ccc(-c2nc(N3CCOCC3)c3ccc(Cl)cc3n2)cc1
18.4% | O=C(NO)c1ccc(-c2nc(N3CCC(F)(F)CC3)c3ccccc3n2)cc1
67.3% | C[C@H]1COCCN1c1nc(-c2ccc(C(=O)NO)cc2)nc2ccccc12
33.8% | COc1cc(OC)c2c(N3CCSCC3)nc(-c3ccc(C(=O)NO)cc3)nc2c1
57.2% | COc1cc(OC)c2c(N3CCOC[C@H]3C)nc(-c3ccc(C(=O)NO)cc3)nc2c1
37.4% | O=C(NO)c1ccc(-c2nc(N3CCS(=O)(=O)CC3)c3ccccc3n2)cc1
18.2% | O=C(NO)c1ccc(-c2nc(N3CCC(F)(F)CC3)c3ccc(Cl)cc3n2)cc1
48.9% | COc1cc(OC)c2c(N3CCOCC3)nc(-c3ccc(C(=O)NO)cc3)nc2c1
78.8% | C[C@@H]1COCCN1c1nc(-c2ccc(C(=O)NO)cc2)nc2cc(Cl)ccc12
11.3% | O=C(NO)c1ccc(-c2nc(N3CCCC3)c3ccccc3n2)cc1
9.7% | COc1cc(OC)c2c(N3CCCC3)nc(-c3ccc(C(=O)NO)cc3)nc2c1
44.7% | O=C(NO)c1ccc(-c2nc(N3CCSCC3)c3ccccc3n2)cc1
68.5% | C[C@@H]1COCCN1c1nc(-c2ccc(C(=O)NO)cc2)nc2ccccc12
55.4% | COc1cc(OC)c2c(N3CCOC[C@@H]3C)nc(-c3ccc(C(=O)NO)cc3)nc2c1
34.8% | COc1cc(OC)c2c(N3CCS(=O)(=O)CC3)nc(-c3ccc(C(=O)NO)cc3)nc2c1
67.6% | COc1cc(OC)c2c(N3CCN(C)CC3)nc(-c3ccc(C(=O)NO)cc3)nc2c1
82.3% | C[C@H]1COCCN1c1nc(-c2ccc(C(=O)NO)cc2)nc2cc(Cl)ccc12
